The subject of the test is Human lymphocyte cell stock HPB-ALL. The test is described as follows: XTT cell viability assay of apoptosis induction in HPB-ALL cells. The test is classed as cell-based. The note with it: only methotrexate added, no anti-Fas antibody, FIG. 3. Here is the method: Human lymphocyte cell stock HPB-ALL (cf. Morikawa, S., et al. (1978) Int. J. Cancer 21, 166-170) was cultured in RPMI 1640 medium containing 10% FCS (manufactured by Gibco B.R.L. Corporation) at 37° C., in the presence of 5% carbon dioxide gas for three days, and 50 μl of the culture (2.5×10^5 cells/50 μl) were dispensed into each well of a 96-well microplate (manufactured by Sumitomo Bakelite Co., Ltd.). Then, 50 μl of the RPMI medium containing methotrexate (manufactured by Sigma Chemical Company), and an anti-Fas antibody (CH11 or HFE7A, 0.001 mg/ml solution was serially diluted by three times) were added to each well, and was cultured at 37° C.
The cells in the plate to which CH11 was added as an anti-Fas antibody were kept to be cultured at 37° C. overnight. […] The plate was then incubated for 3 hours at 37° C., and the absorbance at 450 nm of each well was measured, to calculate cell viability, using the reducing power of the mitochondria as the index.
The viability of the cells in each well was calculated according to the following equation: […]
wherein “a” is the absorbance of a test well, “b” is the absorbance of a well with no cells and c is the absorbance of a well with no antibody added.
A general note: Formazan colour is commonly taken as a measure of viable cells.

Consider `CN(Cc1cnc2nc(N)nc(N)c2n1)c1ccc(C(=O)N[C@@H](CCC(=O)O)C(=O)O)cc1` [methotrexate, Methotrexate], for which the “viability of the cells” value was “almost no change”.

For the origin of these results see US6746673B2, “Pharmaceutical compositions containing anti-Fas antibody” (Sankyo Company, Limited, priority 1999, dated 2004).
